Measured values published in patent publication US6229055A, “Synthesis of fluorinated xanthene derivatives” (Molecular Probes, Inc., priority 2000, dated 2001).
Structures can show the parent of a compound that is named as a salt.

Legend:
[1] = tested on: human lymphoid B-cell culture; experiment: Cell labeling with fluorinated fluorescein diacetates, flow cytometry; type: cell-based; settings: 1 μM, 37° C., 30 minutes, washed, fixed; compared with FDA after two hours (FIG. 5)
Method: Cells from a human lymphoid B-cell culture in RPMI 1640 medium are treated with 1 μM Compound 25 (4,5,6,7-TFFDA), Compound 26 (2',4,5,6,7,7'-HFFDA), or fluorescein diacetate (FDA) at 37° C. for 30 minutes. Following centrifugation and washing in PBS, the pellets are resuspended in RPMI 1640 medium for 15 min, recentrifuged and washed in PBS, fixed with 3.7% formaldehyde in PBS and analyzed by flow cytometry using 488 nm excitation. […] Alternatively, the stained and washed cells are viewed or analyzed without fixation.

[2] = tested on: ATP-dependent dye efflux mechanisms in lymphoid-B cell lines; experiment: Dye efflux from labeled cells with and without verapamil or probenecid, flow cytometry; type: cell-based
Method: Identical batches of lymphoid-B cell lines cells are separately incubated with […] solutions of 4,5,6,7-tetrafluorofluorescein diacetate (Compound 25), 2',7'-dichloro4,5,6,7-tetrafluorofluorescein diacetate (Compound 28), 2',4,5,6,7,7'-hexafluorofluorescein diacetate ([…]) and 2',4',5',7'-tetrafluorofluorescein diacetate. To one set of each cells is added 100 μM verapamil and to another 1 mM probenecid, both of which are known to block ATP-dependent dye efflux mechanisms, as found in multidrug resistant of cells. Without washing, the cells are analyzed for brightness by flow cytometry using 488-nm excitation.

[3] = biological target: Escherichia coli β-galactosidase (Escherichia coli, UniProt P00722); experiment: Labeling β-galactosidase with a fluorinated fluorescein diacetate; settings: 3 mg enzyme in PBS pH 7.5, 13.6 μL of 1 mg/mL dye, 1 hour; estimated with ε=85,600 cm^-1 M^-1 at 515 nm
Escherichia coli β-galactosidase, sequence (P00722 2-1024): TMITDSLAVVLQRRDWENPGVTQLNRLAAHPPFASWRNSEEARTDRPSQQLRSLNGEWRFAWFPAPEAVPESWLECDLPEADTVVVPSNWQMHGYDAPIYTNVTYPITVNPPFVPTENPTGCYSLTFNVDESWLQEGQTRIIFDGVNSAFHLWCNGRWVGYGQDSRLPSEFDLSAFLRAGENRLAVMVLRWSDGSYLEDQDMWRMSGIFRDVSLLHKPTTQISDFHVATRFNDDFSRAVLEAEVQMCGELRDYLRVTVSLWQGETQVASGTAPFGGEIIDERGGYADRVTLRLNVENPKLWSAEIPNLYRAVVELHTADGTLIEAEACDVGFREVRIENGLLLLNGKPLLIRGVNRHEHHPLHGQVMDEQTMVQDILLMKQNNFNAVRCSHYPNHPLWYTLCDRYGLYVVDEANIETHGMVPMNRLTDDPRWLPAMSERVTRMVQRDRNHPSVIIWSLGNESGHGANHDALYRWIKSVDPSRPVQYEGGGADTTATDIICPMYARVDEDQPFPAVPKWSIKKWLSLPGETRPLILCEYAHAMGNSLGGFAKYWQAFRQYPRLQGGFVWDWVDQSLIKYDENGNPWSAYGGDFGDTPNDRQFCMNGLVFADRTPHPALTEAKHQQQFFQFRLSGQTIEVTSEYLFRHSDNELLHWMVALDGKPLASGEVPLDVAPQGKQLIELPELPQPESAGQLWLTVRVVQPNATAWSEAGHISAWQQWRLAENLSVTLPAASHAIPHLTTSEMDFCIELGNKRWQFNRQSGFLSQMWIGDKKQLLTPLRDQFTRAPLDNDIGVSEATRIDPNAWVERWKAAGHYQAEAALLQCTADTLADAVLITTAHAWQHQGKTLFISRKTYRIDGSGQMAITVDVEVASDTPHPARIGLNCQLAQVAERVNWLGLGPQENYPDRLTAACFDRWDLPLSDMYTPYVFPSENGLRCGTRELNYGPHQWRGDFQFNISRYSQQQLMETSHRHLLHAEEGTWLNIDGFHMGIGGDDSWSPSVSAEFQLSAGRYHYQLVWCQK
Method: Escherichia coli β-galactosidase (3 mg) in 150 μL phosphate-buffered saline pH 7.5 is treated with 13.6 μL of a 1 mg/mL stock solution of 4,5,6,7-tetrafluorofluorescein diacetate (Compound 25) in DMSO. After 1 hour the pH is raised to 10 with Na2 CO3 for 2 hours to remove the acetates. Unreacted dye is removed on a spin column. The degree of substitution is estimated at 8.6 using κ=85,600 cm^-1 M^-1 at 515 nm.

[4] = Spectral properties of selected fluorinated fluoresceins and rhodols; type: physicochemical
[5] = Photodecomposition on illumination in fluorometer; type: physicochemical; settings: % of decreased fluorescence intensity after 33 minutes of illumination in fluorometer at wavelength of maximum excitation
Method: *% of decreased fluorescence intensity after 33 minutes of illumination in
fluorometer at wavelength of maximum excitation

[6] = pH titration of fluorophores (pKa); settings: Table 1
Method: The dye of interest is first dissolved in a series of buffers that have each been calibrated using a pH meter. Acetate buffers are typically used in the range of pH 46, and phosphate buffers in the pH range 68. Absorption measurements are made using solutions that are approximately 10 1M in concentration, and fluorescence measurements are made using solutions that are approximately 1 μM in concentration. The absorption or emission data is then plotted versus pH to determine pKa values.

[7] = biological target: T1, acid β-galactosidase from bovine testes (Bos taurus, UniProt Q58D55); experiment: Detection of acid β-galactosidase activity; type: biochemical; settings: 50 μM substrate, 4.6 nM enzyme, pH 4.5, excitation 490 nm, emission 512 nm
T1 construct: from tissue; host or cells: bovine testes
T1 sequence (Q58D55 28-653): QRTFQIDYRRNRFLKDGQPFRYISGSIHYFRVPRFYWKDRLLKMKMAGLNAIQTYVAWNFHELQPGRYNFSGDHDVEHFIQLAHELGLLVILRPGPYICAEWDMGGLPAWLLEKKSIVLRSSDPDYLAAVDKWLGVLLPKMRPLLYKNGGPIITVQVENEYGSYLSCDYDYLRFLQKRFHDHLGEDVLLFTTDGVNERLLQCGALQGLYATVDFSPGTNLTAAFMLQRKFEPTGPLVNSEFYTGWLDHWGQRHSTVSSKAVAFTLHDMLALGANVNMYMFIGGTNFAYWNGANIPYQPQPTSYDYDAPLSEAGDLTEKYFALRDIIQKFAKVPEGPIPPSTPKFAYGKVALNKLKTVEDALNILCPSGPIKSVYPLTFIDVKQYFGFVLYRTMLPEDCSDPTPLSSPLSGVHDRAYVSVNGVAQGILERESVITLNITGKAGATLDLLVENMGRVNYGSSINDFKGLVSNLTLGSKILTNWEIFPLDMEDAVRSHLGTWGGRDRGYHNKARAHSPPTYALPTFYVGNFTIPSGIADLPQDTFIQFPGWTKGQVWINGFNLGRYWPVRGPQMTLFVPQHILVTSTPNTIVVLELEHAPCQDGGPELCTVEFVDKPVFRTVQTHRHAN
Method: The fluorescence resulting from the action of acid β-galactosidase from bovine testes on fluorescein digalactoside (FDG) and DFFDG is compared. The fluorescence increase at 512 nm when excited at 490 nm is measured versus time for 50 μM substrate with 4.6 nM enzyme in assay buffer (200 mM sodium phosphate +75 mM citric acid, pH 4.5). The initial rate of fluorescence production from DFFDG is 3.0 times that obtained using FDG.

[8] = biological target: T2, Endogenous (Lysosomal) β-galactosidase in NIH 3T3 cells (Mus musculus, UniProt P23780); experiment: Detection of endogenous (lysosomal) β-galactosidase activity in intact cells by flow cytometry; type: cell-based; settings: 1 μM, 37° C., 30 minutes; for Fluorescence Emission: normalized to FDG, Table 4
T2 construct: Endogenous (Lysosomal) β-galactosidase Activity in Intact Cells; endogenous in cells; host or cells: NIH 3T3
T2 sequence (P23780 30-647): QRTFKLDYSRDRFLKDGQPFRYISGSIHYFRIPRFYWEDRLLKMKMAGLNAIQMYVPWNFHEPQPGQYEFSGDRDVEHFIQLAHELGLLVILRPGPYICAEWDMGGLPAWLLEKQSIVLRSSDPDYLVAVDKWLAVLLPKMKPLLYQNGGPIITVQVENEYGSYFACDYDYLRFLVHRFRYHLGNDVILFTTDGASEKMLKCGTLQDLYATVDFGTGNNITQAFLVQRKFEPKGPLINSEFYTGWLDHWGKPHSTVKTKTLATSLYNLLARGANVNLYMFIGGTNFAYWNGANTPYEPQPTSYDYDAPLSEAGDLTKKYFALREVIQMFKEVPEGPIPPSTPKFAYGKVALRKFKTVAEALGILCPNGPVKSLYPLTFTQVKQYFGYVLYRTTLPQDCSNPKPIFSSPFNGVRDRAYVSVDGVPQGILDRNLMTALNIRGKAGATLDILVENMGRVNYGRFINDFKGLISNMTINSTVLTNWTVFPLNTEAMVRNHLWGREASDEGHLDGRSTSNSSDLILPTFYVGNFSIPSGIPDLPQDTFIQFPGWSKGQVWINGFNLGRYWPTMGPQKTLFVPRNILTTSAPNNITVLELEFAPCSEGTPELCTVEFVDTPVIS
Method: NIH 3T3 cells that are not transfected with exogenous β-galactosidase were cultured in Dulbecco's Modified Minimal Essential Medium supplemented with 10% fetal bovine serum and 2 mM L-glutamine. Stock solutions of TFMFDG and TFFDG in phosphate buffered saline (PBS) are added to the cell culture medium to obtain a final dye concentration of 1 μM. The cells are incubated at 37° C. for 30 minutes, put on ice and assayed immediately by flow cytometry using a FACS-Vantage instrument equipped with an argon-ion laser (488 nm excitation). Fluorescence emission is collected using a 515 nm long-pass filter and a single photomultiplier tube.

[9] = biological target: prostatic acid phosphatase (Homo sapiens, UniProt P15309); experiment: Detection of acid phosphatase activity; type: biochemical; settings: 10 μM substrate, 0.1 units enzyme, pH 5, excitation 490 nm, emission 515 nm
prostatic acid phosphatase, sequence (P15309 33-386): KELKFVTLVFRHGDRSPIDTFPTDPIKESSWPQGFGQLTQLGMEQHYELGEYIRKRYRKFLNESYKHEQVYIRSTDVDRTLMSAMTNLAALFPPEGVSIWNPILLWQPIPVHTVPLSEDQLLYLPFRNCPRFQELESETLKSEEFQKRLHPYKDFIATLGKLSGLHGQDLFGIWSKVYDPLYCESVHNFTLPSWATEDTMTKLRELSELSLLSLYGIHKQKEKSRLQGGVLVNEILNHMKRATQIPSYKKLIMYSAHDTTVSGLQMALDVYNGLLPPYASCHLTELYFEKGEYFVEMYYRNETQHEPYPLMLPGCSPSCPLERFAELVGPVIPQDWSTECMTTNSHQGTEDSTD
Method: The rate of fluorescent product generation is measured by exciting a solution of 10 μM DFFDP or fluorescein diphosphate (FDP) at 490 nm while monitoring the emission at 515 nm in a fluorometer in the presence of 0.1 units of prostatic acid phosphatase at pH 5. Under these conditions, acid phosphatase produces about a 6.5 times greater change in signal using DFFP than FDP.

[10] = Ca2+ binding affinity of BAPTA conjugate (Calcium Calibration Buffer Kit II)
Method: The fluorescence response and dissociation constant of the fluorescent BAPTA conjugates are determined using the Calcium Calibration Buffer Kit II (Molecular Probes, Inc.; Eugene Oreg.), which is based on a method described by Tsien et al. METH. ENZYM. 172, 230 (1989). For example, 1 mg of Compound 103 is dissolved in deionized water and 5 μL is diluted into 3 mL of each of two buffers, which are cross diluted to arrive at a series of Ca^2+ concentrations between zero and 35 μM. Emission spectra of the dye solutions are scanned between dilutions to generate a family of curves. Each of these curves has maximal fluorescence emission at approximately 530 nm with an increase in fluorescence emission intensity with increasing Ca^2+ concentration. This intensity change is plotted against the concentration of free Ca^2+ to give a value for the dissociation constant of the indicator. […] The calculated dissociation constant at 20° C. is 169 nM.

SMILES: CC(=O)Oc1c(F)cc2c(c1F)Oc1c(cc(F)c(OC(C)=O)c1F)C21OC(=O)c2ccccc21 [2',4',5',7'-TFFDA, 2',4',5',7'-tetrafluorofluorescein diacetate]
- fluorescence of stained cells [1]: weakly fluorescent
- Mean Fluorescence intensity of labeled cells ([2]; 100 μM verapamil): 14.0
- Mean Fluorescence intensity of labeled cells ([2]; 1 mM Probenecid): 12.8
- Mean Fluorescence intensity of labeled cells ([2]; No drug): 2.9

SMILES: CC(=O)Oc1ccc2c(c1)Oc1cc(OC(C)=O)ccc1C21OC(=O)c2c(F)c(F)c(F)c(F)c21 [Compound 25, 4,5,6,7-tetrafluorofluorescein Diacetate]
- protein labeling (degree of substitution) [3]: 8.6
- fluorescence of stained cells [1]: significantly higher fluorescence
- Mean Fluorescence intensity of labeled cells ([2]; 100 μM verapamil): 1892
- Mean Fluorescence intensity of labeled cells ([2]; 1 mM Probenecid): 2521
- Mean Fluorescence intensity of labeled cells ([2]; No drug): 732

SMILES: CC(=O)Oc1cc2c(cc1F)C1(OC(=O)c3c(F)c(F)c(F)c(F)c31)c1cc(F)c(OC(C)=O)cc1O2 [Compound 27, 2',4,5,6,7,7'-hexafluorofluorescein Diacetate]
- fluorescence of stained cells [1]: significantly higher fluorescence
- Mean Fluorescence intensity of labeled cells ([2]; 100 μM verapamil): 212
- Mean Fluorescence intensity of labeled cells ([2]; 1 mM Probenecid): 172
- Mean Fluorescence intensity of labeled cells ([2]; No drug): 26.9

SMILES: O=C1OC2(c3ccc(O)cc3Oc3cc(O)ccc32)c2c(F)c(F)c(F)c(F)c21 [Compound 34, 4,5,6,7-tetrafluorofluorescein]
- Abs. ([4]; absorption maximum): 508 nm
- Em. ([4]; emission maximum): 527 nm
- ε × 10^-3 ([4]; extinction coefficient, value is ε × 10^-3): 85.6 cm^-1 M^-1
- Quantum Yield ([4]; fluorescence quantum yield): 0.85
- photodecomposition [5]: 6.6%
- protein labeling (degree of substitution) [3]: minimal protein labeling
- pKa [6]: 6.1

SMILES: O=C1OC2(c3cc(F)c(O[C@@H]4O[C@H](CO)[C@H](O)[C@H](O)[C@H]4O)cc3Oc3cc(O[C@@H]4O[C@H](CO)[C@H](O)[C@H](O)[C@H]4O)c(F)cc32)c2ccccc21 [Compound 94, 2',7'-difluorofluorescein, bis-O-galactoside]
- initial rate of fluorescence production relative to FDG [7]: 3.0 times

SMILES: O=C1OC2(c3ccc(O[C@@H]4O[C@H](CO)[C@H](O)[C@H](O)[C@H]4O)cc3Oc3cc(O[C@@H]4O[C@H](CO)[C@H](O)[C@H](O)[C@H]4O)ccc32)c2c(F)c(F)c(F)c(F)c21 [Compound 95, 4,5,6,7-tetrafluorofluorescein, bis-O-galactoside]
- fluorescence signal relative to FDG [8]: 4.1 times
- Fluorescence Emission [8]: 4.1

SMILES: O=C1OC2(c3cc(F)c(OP(=O)(O)O)cc3Oc3cc(OP(=O)(O)O)c(F)cc32)c2ccccc21 [Compound 96, 2',7'-fluorofluorescein Diphosphate, Tetraammonium Salt]
- change in signal relative to FDP [9]: ~6.5 times

SMILES: O=C(O)CN(CC(=O)O)c1ccccc1OCCOc1cc(NC(=O)c2ccc3c(c2)C(=O)OC32c3cc(F)c(O)cc3Oc3cc(O)c(F)cc32)ccc1N(CC(=O)O)CC(=O)O [Compound 103]
- fluorescence emission intensity increase ([10]; Ca^2+ from zero to 35 μM, emission approximately 530 nm): approximately 17 fold
- Kd ([10]; Ca^2+, 20° C., read-out: dissociation constant): 169 nM

SMILES: O=C1OC2(c3ccc(O[C@@H]4O[C@H](CO)[C@H](O)[C@H](O)[C@H]4O)cc3Oc3cc(O[C@@H]4O[C@H](CO)[C@H](O)[C@H](O)[C@H]4O)ccc32)c2ccccc21 [FDG, fluorescein digalactoside, reference compound]
- Fluorescence Emission [8]: 1.0

SMILES: COc1c(F)c(F)c2c(c1F)C1(OC2=O)c2ccc(O[C@@H]3O[C@H](CO)[C@H](O)[C@H](O)[C@H]3O)cc2Oc2cc(O[C@@H]3O[C@H](CO)[C@H](O)[C@H](O)[C@H]3O)ccc21 [TFMFDG, 4,5,7-trifluoro-6-methoxyfluorescein Digalactoside]
- fluorescence signal relative to FDG [8]: 48.1 times
- Fluorescence Emission [8]: 48.1
